Data published in PubChem BioAssay (NCI).
Where “and” joins values, the source holds several entries; their conditions need not be identical. Identical values can stand only once.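 Compound exposure: 48 hours, 5 concentrations, 96-well plates. The concentration for 50% growth inhibition is given as GI50. TGI marks complete inhibition of growth.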

Key:
Assay in all cases: DTP human tumour cell line panel, 48 h
[1] = system: A498 renal
[2] = system: HOP-92 NSCLC
[3] = system: PC-3 prostate
[4] = system: SF-295 CNS
[5] = system: SK-MEL-2 melanoma
[6] = system: SN12C renal
[7] = system: T-47D breast
[8] = system: HCT-15 colon
[9] = system: OVCAR-4 ovarian
[10] = system: RPMI-8226 leukemia

SMILES	TGI [1] [µM]	TGI [2] [µM]	TGI [3]	TGI [4] [µM]	TGI [5] [µM]	TGI [6] [µM]	TGI [7] [µM]	TGI [8] [µM]	TGI [9] [µM]	TGI [10] [µM]	GI50 [1]	GI50 [8]	GI50 [2] [µM]	GI50 [9]	GI50 [3]	GI50 [10]	GI50 [4]	GI50 [6]	GI50 [7]	GI50 [5] [µM]
COc1ccc(C[n+]2cccc(O)c2)cc1	> 100	> 100	> 100 µM	> 100	> 100	> 100	> 100	–	–	–	–	–	–	–	–	–	–	–	–	–
CC(=O)c1cc(CC2Cc3cc4c(cc3C2=O)CCC4)cc2c1CCC2 (centres undefined)	> 100	–	> 100 µM	> 100	> 100	> 100	> 100	> 100	> 100	69.2	–	–	–	–	–	–	–	–	–	–
O=c1oc2ccc3ccccc3c2cc1-c1nc(-c2ccc([N+](=O)[O-])cc2)n[nH]1	> 100	–	> 100 µM	> 100	> 100	–	–	> 100	> 100	> 100	–	–	–	–	–	–	–	–	–	–
COC(=O)CNC(=O)CNC(=O)CSc1nnc(COc2ccc(Cl)cc2)n1-c1ccccc1	> 100	49.5	> 100 µM	> 100	43.9	> 100	–	> 100	> 100	78.1	–	–	–	–	–	–	–	–	–	–
Clc1ccc(OCc2nnc3sc(SSc4nn5c(COc6ccc(Cl)cc6)nnc5s4)nn23)cc1	86	> 100	–	> 100	> 100	> 100	> 100	> 100	> 100	> 100	28.9 µM	86.2 µM	18.2	46.7 µM	–	–	–	–	–	–
O=C1NC(=S)N/C1=C\c1ccc(Cl)cc1	–	–	> 100 µM	> 100	> 100	> 100	> 100	> 100	> 100	> 100	–	–	–	–	–	–	–	–	–	–
CSCCC(NC(=O)Cc1ccc(C(=O)c2ccccc2)cc1)C(=O)N1CCN(CCCCN2c3ccccc3Sc3cc(N=[N+]=[N-])ccc32)CC1 (centres undefined)	> 100	> 100	> 100 µM	> 100	> 100	> 100	–	> 100	> 100	> 100	–	–	–	–	–	–	–	–	–	–
O=[N+]([O-])c1ccc(NNN=Nc2ccc(-c3nc4ccccc4[nH]3)cc2)c([N+](=O)[O-])c1	89.5	> 100	> 100 µM	> 100	88.6	> 100	> 100	> 100	> 100	–	–	–	–	–	–	–	–	–	–	–
CC1=NNC(=O)C1C1CC(c2c[nH]c3ccccc23)=NN(c2ccccc2)C1=O (centres undefined)	> 100	> 100	> 100 µM	> 100	> 100	> 100	> 100	> 100	–	> 100	–	–	–	–	–	–	–	–	–	–
COC(O)C(=O)c1c2c(cc3c1CCC3)CCC2 (centres undefined)	> 100	–	> 100 µM	> 100	> 100	> 100	> 100	> 100	> 100	> 100	–	–	–	–	–	–	–	–	–	–
N#CC(NNC(=O)c1c(Cl)c(Cl)c(Cl)c(Cl)c1-c1nc2ccc(C(=O)c3ccccc3)cc2[nH]1)c1ccccc1 (centres undefined)	–	> 100	> 100 µM	22.1	58.1	31.1	98.8	> 100	> 100	24.9	–	–	–	–	–	–	–	–	–	–
CC[C@@]1(O)C(=O)OCc2c1cc1n(c2=O)Cc2cc3c(CN(C)C)c(O)ccc3nc2-1	–	–	> 90.1 µM and 14.8 µM and 35 µM	–	–	–	–	–	–	–	0.0205 µM and 0.0299 µM	0.304 µM and 0.0813 µM and 0.67 µM	–	0.319 µM and 0.812 µM and 0.571 µM	0.0425 µM and 0.26 µM	0.163 µM and 0.0818 µM and 0.435 µM	< 0.01 µM and 0.0104 µM and 0.0304 µM	< 0.01 µM and 0.00456 µM and 0.0248 µM	< 0.0117 µM and 0.0189 µM and 0.0186 µM	–
CCCCC(O)(c1ccccc1)C(O)(c1ccccc1)c1c(F)c(F)c(F)c(F)c1F (centres undefined)	49.4	44.8	46.8 µM	–	–	31.1	> 100	30.1	> 100	45.6	–	–	–	–	–	–	–	–	–	–
O=c1ccn(Cc2ccccc2CCl)c(=O)[nH]1	–	> 100	> 100 µM	64.1	89	59.4	> 100	35.8	> 100	–	–	–	–	–	–	–	–	–	–	–
N#CC(c1ccccc1)N(CCc1ccccc1)C(=O)c1ccc(C(=O)N(CCc2ccccc2)C(C#N)c2ccccc2)cc1 (centres undefined)	75.3	28.1	> 100 µM	51.9	48.1	38.3	61.3	37.8	64	–	–	–	–	–	–	–	–	–	–	–
CCOc1ccc(N2C(=O)NC3(c4ccccc4)N(C)C(=O)N(C)C23c2ccccc2)cc1 (centres undefined)	> 100	> 100	> 100 µM	> 100	> 100	> 100	–	–	–	> 100	–	–	–	–	–	–	–	–	–	–
Clc1ccc(C2CC(c3cccc(Nc4ccncc4)c3)=NN2c2ccccc2)cc1 (centres undefined)	3.3	2.82	3.12 µM	3.07	3.84	3.31	4.86	2.83	3.17	–	1.43 µM	1.42 µM	1.4	1.64 µM	1.6 µM	–	1.66 µM	1.78 µM	2.1 µM	1.98
Cc1cc(N(CCC#N)CCC#N)ccc1/C=C1N=C(/C=C/c2ccccc2)N(c2ccc(S(N)(=O)=O)cc2)C\1=O	> 100	> 100	–	> 100	> 100	> 100	–	> 100	> 100	> 100	–	–	–	–	–	–	–	–	–	–
O=S1(=O)OCCOS(=O)(=O)C1(Cl)Cl	> 100	> 100	–	> 100	> 100	> 100	–	–	> 100	> 100	–	–	–	–	–	–	–	–	–	–
Clc1cc2nc(C3CCCCO3)[nH]c2cc1Cl (centres undefined)	–	> 100	> 100 µM	> 100	> 100	> 100	> 93.9	> 100	> 100	> 73.4	–	–	–	–	–	–	–	–	–	–
Fc1cc(C2=Nn3c(CNc4ccc(Cl)cc4)nnc3S/C2=C\c2ccc(-c3ccc(Cl)cc3)o2)c(Cl)cc1Cl	65.6	–	51 µM	52.4	> 100	> 100	> 100	> 100	–	79.1	–	–	–	–	–	–	–	–	–	–
